Assay results published in paper PMC9150124, “Design of a Potent, Selective, and Brain-Penetrant Inhibitor of Wnt-Deactivating Enzyme Notum by Optimization of a Crystallographic Fragment Hit” (Journal of Medicinal Chemistry, 2022).

Experiments:
Test in all cases: SelectScreen kinase profiling, SSBK ZLyte SP Technology
Type in all cases: biochemical
[1] = target: kinase named in conditions (Homo sapiens, UniProt O75676); settings: RPS6KA4 (MSK2), 10 μM
Procedure: (§1) Kinase selectivity screening was performed by Thermo Fisher Scientific (Paisley, U.K.) in their SelectScreen Biochemical Kinase Profiling Service. Assay information and data are presented in the Supporting Information.
(§2) Kinase selectivity screening was performed by ThermoFisher Scientific (Paisley, U.K.) in their SelectScreenTM
(§3) Biochemical Kinase Profiling service .

[2] = target: kinase named in conditions (Homo sapiens, UniProt P00519, E255K); settings: ABL1 E255K, 10 μM
Procedure: as §1, §2, §3

[3] = target: kinase named in conditions (Homo sapiens, UniProt P00519, G250E); settings: ABL1 G250E, 10 μM
Procedure: as §1, §2, §3

[4] = target: kinase named in conditions (Homo sapiens, UniProt P00533, L858R/T790M); settings: EGFR (ErbB1) T790M L858R, 10 μM
Procedure: as §1, §2, §3

[5] = target: kinase named in conditions (Homo sapiens, UniProt P04049, Y340D/Y341D); settings: RAF1 (cRAF) Y340D Y341D, 10 μM
Procedure: as §1, §2, §3

[6] = target: kinase named in conditions (Homo sapiens, UniProt P06241); settings: FYN, 10 μM
Procedure: as §1, §2, §3

[7] = target: kinase named in conditions (Homo sapiens, UniProt P07332); settings: FES (FPS), 10 μM
Procedure: as §1, §2, §3

[8] = target: kinase named in conditions (Homo sapiens, UniProt P07949, V804E); settings: RET V804E, 10 μM
Procedure: as §1, §2, §3

[9] = target: kinase named in conditions (Homo sapiens, UniProt P08069); settings: IGF1R, 10 μM
Procedure: as §1, §2, §3

[10] = target: kinase named in conditions (Homo sapiens, UniProt P11309); settings: PIM1, 10 μM
Procedure: as §1, §2, §3

[11] = target: kinase named in conditions (Homo sapiens, UniProt P11362); settings: FGFR1, 10 μM
Procedure: as §1, §2, §3

[12] = target: kinase named in conditions (Homo sapiens, UniProt P17252); settings: PRKCA (PKC alpha), 10 μM
Procedure: as §1, §2, §3

[13] = target: kinase named in conditions (Homo sapiens, UniProt P17948); settings: FLT1 (VEGFR1), 10 μM
Procedure: as §1, §2, §3

[14] = target: kinase named in conditions (Homo sapiens, UniProt P25098); settings: ADRBK1 (GRK2), 10 μM
Procedure: as §1, §2, §3

[15] = target: kinase named in conditions (Homo sapiens, UniProt P36896); settings: ACVR1B (ALK4), 10 μM
Procedure: as §1, §2, §3

[16] = target: kinase named in conditions (Homo sapiens, UniProt P42681); settings: TXK, 10 μM
Procedure: as §1, §2, §3

[17] = target: kinase named in conditions (Homo sapiens, UniProt P51451); settings: BLK, 10 μM
Procedure: as §1, §2, §3

[18] = target: kinase named in conditions (Homo sapiens, UniProt P51957); settings: NEK4, 10 μM
Procedure: as §1, §2, §3

[19] = target: kinase named in conditions (Homo sapiens, UniProt Q00535)
Procedure: as §1, §2, §3

[20] = target: kinase named in conditions (Homo sapiens, UniProt Q02750); settings: MAP2K1 (MEK1), 10 μM
Procedure: as §1, §2, §3

[21] = target: kinase named in conditions (Homo sapiens, UniProt Q02763); settings: TEK (Tie2), 10 μM
Procedure: as §1, §2, §3

[22] = target: kinase named in conditions (Homo sapiens, UniProt Q04912); settings: MST1R (RON), 10 μM
Procedure: as §1, §2, §3

[23] = target: kinase named in conditions (Homo sapiens, UniProt Q16644); settings: MAPKAPK3, 10 μM
Procedure: as §1, §2, §3

[24] = target: kinase named in conditions (Homo sapiens, UniProt Q6DT37); settings: CDC42 BPG (MRCKG), 10 μM
Procedure: as §1, §2, §3

[25] = target: kinase named in conditions (Homo sapiens, UniProt Q6VAB6); settings: KSR2, 10 μM
Procedure: as §1, §2, §3

[26] = target: kinase named in conditions (Homo sapiens, UniProt Q8WTQ7); settings: GRK7, 10 μM
Procedure: as §1, §2, §3

[27] = target: kinase named in conditions (Homo sapiens, UniProt Q96NX5); settings: CAMK1G (CAMKI gamma), 10 μM
Procedure: as §1, §2, §3

[28] = target: kinase named in conditions (Homo sapiens, UniProt Q96RG2); settings: PASK, 10 μM
Procedure: as §1, §2, §3

[29] = target: kinase named in conditions (Homo sapiens, UniProt Q9H2X6); settings: HIPK2, 10 μM
Procedure: as §1, §2, §3

[30] = target: kinase named in conditions (Homo sapiens, UniProt Q9H792); settings: PEAK1, 10 μM
Procedure: as §1, §2, §3

[31] = target: kinase named in conditions (Homo sapiens, UniProt Q9HCP0); settings: CSNK1G1 (CK1 gamma 1), 10 μM
Procedure: as §1, §2, §3

[32] = target: kinase named in conditions (Homo sapiens, UniProt Q9P1W9); settings: PIM2, 10 μM
Procedure: as §1, §2, §3

[33] = target: kinase named in conditions (Homo sapiens, UniProt Q9Y6E0); settings: STK24 (MST3), 10 μM
Procedure: as §1, §2, §3

[34] = test system: kinase named in conditions
Procedure: as §1, §2, §3

Chain of kinase named in conditions (Homo sapiens, UniProt Q00535) (Q00535 whole entry): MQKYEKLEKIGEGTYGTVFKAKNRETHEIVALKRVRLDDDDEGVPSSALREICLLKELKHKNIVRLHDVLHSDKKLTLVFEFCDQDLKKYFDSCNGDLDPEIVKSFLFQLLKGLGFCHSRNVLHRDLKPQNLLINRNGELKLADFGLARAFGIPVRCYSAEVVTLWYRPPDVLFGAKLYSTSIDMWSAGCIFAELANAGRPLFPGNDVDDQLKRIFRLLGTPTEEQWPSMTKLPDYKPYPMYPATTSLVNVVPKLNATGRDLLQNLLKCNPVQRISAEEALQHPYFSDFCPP
Chain of kinase named in conditions (Homo sapiens, UniProt P51957) (P51957 whole entry): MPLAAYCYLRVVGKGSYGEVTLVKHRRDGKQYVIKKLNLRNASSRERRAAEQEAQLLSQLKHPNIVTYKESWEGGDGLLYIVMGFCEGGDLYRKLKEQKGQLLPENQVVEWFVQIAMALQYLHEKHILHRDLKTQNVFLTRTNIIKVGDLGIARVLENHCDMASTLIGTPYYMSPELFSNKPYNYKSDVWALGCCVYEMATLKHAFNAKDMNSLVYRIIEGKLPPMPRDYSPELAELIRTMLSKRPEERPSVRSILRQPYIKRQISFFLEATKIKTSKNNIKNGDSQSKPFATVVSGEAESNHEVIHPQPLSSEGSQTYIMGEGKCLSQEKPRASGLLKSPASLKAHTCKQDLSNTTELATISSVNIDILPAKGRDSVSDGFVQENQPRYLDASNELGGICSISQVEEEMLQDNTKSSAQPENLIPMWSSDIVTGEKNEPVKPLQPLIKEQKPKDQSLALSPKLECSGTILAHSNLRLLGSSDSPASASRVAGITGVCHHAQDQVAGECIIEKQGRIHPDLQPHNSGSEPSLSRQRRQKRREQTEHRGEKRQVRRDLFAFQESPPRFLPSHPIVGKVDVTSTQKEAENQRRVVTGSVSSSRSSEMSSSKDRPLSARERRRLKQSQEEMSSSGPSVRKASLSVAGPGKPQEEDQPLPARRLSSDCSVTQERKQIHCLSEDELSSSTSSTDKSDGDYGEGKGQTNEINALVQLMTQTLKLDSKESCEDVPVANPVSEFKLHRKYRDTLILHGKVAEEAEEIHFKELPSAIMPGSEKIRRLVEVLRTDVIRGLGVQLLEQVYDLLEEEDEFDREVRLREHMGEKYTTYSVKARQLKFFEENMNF
Chain of kinase named in conditions (Homo sapiens, UniProt Q96RG2) (Q96RG2 whole entry): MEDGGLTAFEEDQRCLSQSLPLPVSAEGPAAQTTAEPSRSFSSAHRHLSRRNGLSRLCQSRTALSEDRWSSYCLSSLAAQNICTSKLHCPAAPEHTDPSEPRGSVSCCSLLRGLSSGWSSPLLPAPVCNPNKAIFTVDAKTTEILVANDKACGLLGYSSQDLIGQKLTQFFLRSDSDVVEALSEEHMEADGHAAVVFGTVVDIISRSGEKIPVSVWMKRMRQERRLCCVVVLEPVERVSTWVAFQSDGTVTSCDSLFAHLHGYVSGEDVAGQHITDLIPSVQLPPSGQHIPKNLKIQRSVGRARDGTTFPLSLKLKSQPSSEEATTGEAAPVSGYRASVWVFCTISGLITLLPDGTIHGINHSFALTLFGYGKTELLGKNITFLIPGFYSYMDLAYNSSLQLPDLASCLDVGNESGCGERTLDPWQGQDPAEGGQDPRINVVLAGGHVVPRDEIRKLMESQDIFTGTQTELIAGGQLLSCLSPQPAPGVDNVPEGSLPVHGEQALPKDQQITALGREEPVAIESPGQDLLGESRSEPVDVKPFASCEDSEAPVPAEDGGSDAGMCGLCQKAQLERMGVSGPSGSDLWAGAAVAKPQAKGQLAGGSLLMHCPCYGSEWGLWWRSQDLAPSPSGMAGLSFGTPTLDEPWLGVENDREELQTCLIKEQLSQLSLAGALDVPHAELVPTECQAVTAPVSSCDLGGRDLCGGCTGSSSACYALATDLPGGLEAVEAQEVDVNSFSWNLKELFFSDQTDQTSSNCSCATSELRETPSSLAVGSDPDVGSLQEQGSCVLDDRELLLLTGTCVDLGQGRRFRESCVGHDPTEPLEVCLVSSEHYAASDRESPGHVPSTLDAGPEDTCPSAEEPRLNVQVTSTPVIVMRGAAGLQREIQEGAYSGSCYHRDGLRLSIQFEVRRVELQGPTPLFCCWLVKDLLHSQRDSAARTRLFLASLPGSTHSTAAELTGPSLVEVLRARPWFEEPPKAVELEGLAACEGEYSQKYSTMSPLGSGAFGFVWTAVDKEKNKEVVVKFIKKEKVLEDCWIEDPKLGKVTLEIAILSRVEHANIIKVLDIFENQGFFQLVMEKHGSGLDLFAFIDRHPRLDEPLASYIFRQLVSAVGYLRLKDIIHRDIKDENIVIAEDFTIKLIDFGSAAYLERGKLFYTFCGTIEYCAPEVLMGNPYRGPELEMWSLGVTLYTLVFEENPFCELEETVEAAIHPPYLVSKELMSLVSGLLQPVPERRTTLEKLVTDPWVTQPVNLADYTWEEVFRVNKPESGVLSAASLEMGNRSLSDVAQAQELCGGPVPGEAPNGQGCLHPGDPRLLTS
Chain of kinase named in conditions (Homo sapiens, UniProt Q16644) (Q16644 whole entry): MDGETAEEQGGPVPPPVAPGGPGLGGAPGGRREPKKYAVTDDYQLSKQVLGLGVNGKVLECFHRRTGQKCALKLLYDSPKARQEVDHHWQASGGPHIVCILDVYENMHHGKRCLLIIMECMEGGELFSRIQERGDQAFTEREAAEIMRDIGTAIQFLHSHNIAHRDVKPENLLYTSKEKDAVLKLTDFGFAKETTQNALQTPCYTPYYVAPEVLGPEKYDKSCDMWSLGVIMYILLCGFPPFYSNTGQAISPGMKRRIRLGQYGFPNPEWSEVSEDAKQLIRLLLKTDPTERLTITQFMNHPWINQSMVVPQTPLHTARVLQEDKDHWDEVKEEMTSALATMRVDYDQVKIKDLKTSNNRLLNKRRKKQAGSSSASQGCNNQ
Chain of kinase named in conditions (Homo sapiens, UniProt P06241) (P06241 whole entry): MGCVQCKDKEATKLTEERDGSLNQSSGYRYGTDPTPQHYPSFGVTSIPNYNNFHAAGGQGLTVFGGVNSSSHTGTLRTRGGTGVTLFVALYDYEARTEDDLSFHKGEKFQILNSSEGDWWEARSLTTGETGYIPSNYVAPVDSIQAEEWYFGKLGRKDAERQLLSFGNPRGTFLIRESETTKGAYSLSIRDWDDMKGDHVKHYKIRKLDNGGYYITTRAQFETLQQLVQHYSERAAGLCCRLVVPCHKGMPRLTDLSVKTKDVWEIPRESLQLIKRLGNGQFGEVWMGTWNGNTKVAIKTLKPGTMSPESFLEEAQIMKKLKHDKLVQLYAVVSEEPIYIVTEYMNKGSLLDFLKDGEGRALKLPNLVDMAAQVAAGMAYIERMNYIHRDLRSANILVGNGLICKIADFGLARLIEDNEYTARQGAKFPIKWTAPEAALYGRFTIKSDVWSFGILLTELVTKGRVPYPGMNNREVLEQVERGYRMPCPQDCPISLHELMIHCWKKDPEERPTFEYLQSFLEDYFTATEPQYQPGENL
Chain of kinase named in conditions (Homo sapiens, UniProt P11309) (P11309 whole entry): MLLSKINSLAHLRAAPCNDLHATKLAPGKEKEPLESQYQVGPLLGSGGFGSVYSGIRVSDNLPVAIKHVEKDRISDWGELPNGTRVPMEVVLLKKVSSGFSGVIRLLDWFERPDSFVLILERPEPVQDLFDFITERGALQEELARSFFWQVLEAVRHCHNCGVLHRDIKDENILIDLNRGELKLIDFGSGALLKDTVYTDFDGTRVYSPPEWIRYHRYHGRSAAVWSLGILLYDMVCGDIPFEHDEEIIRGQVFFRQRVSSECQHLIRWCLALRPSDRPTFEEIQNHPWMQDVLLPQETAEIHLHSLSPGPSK
Chain of kinase named in conditions (Homo sapiens, UniProt Q9HCP0) (Q9HCP0 whole entry): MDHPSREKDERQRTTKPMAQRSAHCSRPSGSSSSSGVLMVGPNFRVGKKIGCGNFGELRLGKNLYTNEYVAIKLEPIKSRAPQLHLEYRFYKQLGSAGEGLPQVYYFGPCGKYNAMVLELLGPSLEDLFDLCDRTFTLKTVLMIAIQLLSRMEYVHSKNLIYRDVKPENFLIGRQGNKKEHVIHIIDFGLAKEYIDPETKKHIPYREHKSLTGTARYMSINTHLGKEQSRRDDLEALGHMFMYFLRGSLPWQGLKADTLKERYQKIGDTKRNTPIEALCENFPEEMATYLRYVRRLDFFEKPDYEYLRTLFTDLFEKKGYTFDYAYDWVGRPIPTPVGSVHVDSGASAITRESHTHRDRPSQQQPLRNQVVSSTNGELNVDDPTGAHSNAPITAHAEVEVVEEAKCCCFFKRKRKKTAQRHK
Chain of kinase named in conditions (Homo sapiens, UniProt P25098) (P25098 whole entry): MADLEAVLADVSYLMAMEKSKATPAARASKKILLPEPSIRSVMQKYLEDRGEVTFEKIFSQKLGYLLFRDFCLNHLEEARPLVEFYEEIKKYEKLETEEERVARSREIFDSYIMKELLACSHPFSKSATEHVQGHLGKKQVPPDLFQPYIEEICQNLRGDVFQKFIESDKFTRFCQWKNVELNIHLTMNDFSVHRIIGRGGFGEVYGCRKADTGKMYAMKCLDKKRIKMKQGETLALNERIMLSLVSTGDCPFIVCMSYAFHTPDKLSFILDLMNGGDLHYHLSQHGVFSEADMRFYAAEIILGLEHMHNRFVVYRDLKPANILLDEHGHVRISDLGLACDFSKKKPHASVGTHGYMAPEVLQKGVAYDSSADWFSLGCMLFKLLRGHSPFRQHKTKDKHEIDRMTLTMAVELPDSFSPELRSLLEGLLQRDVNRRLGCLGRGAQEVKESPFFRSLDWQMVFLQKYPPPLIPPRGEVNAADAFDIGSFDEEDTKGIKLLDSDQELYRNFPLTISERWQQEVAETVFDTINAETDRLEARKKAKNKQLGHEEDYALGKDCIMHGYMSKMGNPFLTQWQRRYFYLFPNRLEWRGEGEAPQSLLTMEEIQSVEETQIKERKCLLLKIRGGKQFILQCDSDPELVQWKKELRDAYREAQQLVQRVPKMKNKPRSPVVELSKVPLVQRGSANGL

For `FC(F)(F)c1c(Cl)ccc(-n2ccnn2)c1Cl` [8l, 1-(2,4-Dichloro-3-(trifluoromethyl)phenyl)-1H-1,2,3-triazole], the inhibition at 10 µM [1] was 1%, the inhibition at 10 µM [2] was 13% and the inhibition at 10 µM [3] was 8%. For the same molecule, the inhibition at 10 µM [4] was 12%, the inhibition at 10 µM [5] was 10% and the inhibition at 10 µM [6] was 0%. For the same molecule, the inhibition at 10 µM [7] was 6%, the inhibition at 10 µM [8] was 4% and the inhibition at 10 µM [9] was -4%. For the same molecule, the inhibition at 10 µM [10] was 6%, the inhibition at 10 µM [11] was -3% and the inhibition at 10 µM [12] was -18%. The inhibition at 10 µM [13] was 8%, the inhibition at 10 µM [14] was 4% and the inhibition at 10 µM [15] was -12%. For the same molecule, the inhibition at 10 µM [16] was 4%, the inhibition at 10 µM [17] was 2% and the inhibition at 10 µM [18] was 3%. It also gave an inhibition at 10 µM ([19]; CDK5/p25, 10 μM) of 1%, an inhibition at 10 µM ([19]; CDK5/p35, 10 μM) of 7% and an inhibition at 10 µM [20] of -5%. For the same molecule, the inhibition at 10 µM [21] was -1%, the inhibition at 10 µM [22] was 11% and the inhibition at 10 µM [23] was 1%. The inhibition at 10 µM [24] was 2%, the inhibition at 10 µM [25] was 2% and the inhibition at 10 µM [26] was 0%. It also gave an inhibition at 10 µM [27] of 2%, an inhibition at 10 µM [28] of -1% and an inhibition at 10 µM [29] of 2%. For the same molecule, the inhibition at 10 µM [30] was 20%, the inhibition at 10 µM [31] was 4% and the inhibition at 10 µM [32] was 5%. The inhibition at 10 µM [33] was 5%, the “% Inhibition mean” value ([34]; LYN B, 10 μM) was 7% and the “% Inhibition mean” value ([34]; PRKCB2 (PKC beta II), 10 μM) was -17%. For the same molecule, the “% Inhibition mean” value ([34]; SRC N1, 10 μM) was 4%.
